Assay results reported in patent US20180238860A1, “INDIVIDUAL METHOD PREDICTIVE OF THE DNA-BREAKING GENOTOXIC EFFECTS OF CHEMICAL OR BIOCHEMICAL AGENTS” (priority 2015, published 2018).

How the values were obtained:
Type in all cases: cell-based, human
Ha (astrocyte cells) [1] = test: pH2AX foci 24 h after contacting, Ha astrocyte cells; conditions: for pH2AX: Ha, 24 hours after contacting
Procedure: (§1) In one embodiment, on receipt, the tissue sample (typically the biopsy) is established in the form of an amplifiable cell line without a viral or chemical transformation agent according to an ancillary procedure well known to culture laboratories, as underlined by the publication of Elkind et al. “The radiobiology of cultured mammalian cell”, Gordon and Breach (1967). Once the number of cells is sufficient (typically after 1 to 3 weeks), the first experiments are carried out using the process according to the invention. A cell sample is prepared: The cells are inoculated on glass coverslips in Petri dishes. A portion of these coverslips are contaminated with metals or pesticides or any other DNA-breaking chemical or biochemical agent at different concentrations. A further portion is not contaminated; it represents the spontaneous state. During contamination, the cells remain in the culture incubator at 37° C.
(§2) For the contaminated cells, characteristics are acquired corresponding to the state after an incubation time with the DNA-breaking chemical or biochemical agent. Said characteristics are represented by foci corresponding to the marker pH2AX. The cells on glass coverslips are then fixed, lysed and hybridized. The following procedure, known per se (Bodgi et al, “A single formula to describe radiation-induced protein relocalization: towards a mathematical definition of individual radiosensitivity”, J Theor Biol. 21 p 333:135-45.2013):
(§3) the cells are fixed in 3% paraformaldehyde and 2% sucrose for 15 minutes at ambient temperature and permeabilized in 20 mM HEPES buffer solution (4-(2-hydroxyethyl)-1-piperazine ethane sulfonic acid) at pH 7.4, 50 mM NaCl, 3 mM MgCl2, 300 mM sucrose, 0.5% Triton X-100 (a non-ionic surfactant having the formula t-Oct-C6H4-(OCH2CH2)×OH where x=9-10, CAS No. 9002-93-1, supplied for example by Sigma Aldrich) for 3 minutes. The glass coverslips are then washed in phosphate buffer saline (known as the acronym PBS) before immunological staining. The incubation took place for 40 min at 37° C. in PBS supplemented with 2% bovine serum albumin (known as the acronym BSA or fraction V, supplied for example by Sigma Aldrich) and was followed by a wash with PBS. Anti-pH2AX primary antibodies are used at a concentration of 1:800. The incubations with anti-mouse FITC or anti-rabbit TRITC secondary antibodies (1:100, supplied by Sigma Aldrich) were performed at 37° C. in 2% BSA for 20 minutes. Glass coverslips were treated with Vectashield™ containing DAPI (4,6-Diamidino-2-phenylindole) to label the nucleus. Staining with DAPI also makes it possible, indirectly, to determine the number of cells in phase G1 (nuclei with homogenous DAPI staining), in phase S (nuclei with numerous pH2AX foci), in phase G2 (nuclei with heterogeneous DAPI staining) and metaphases (visible chromosomes).
(§4) The results are acquired using these coverslips on an immunofluorescence microscope (Olympus model for example). The reading may be direct (typically by counting the foci on at least 50 cells in G0/G1 for each point) or using dedicated image analysis software, or on an automated microscope; preferably the software or automated microscope methods are calibrated with manual determinations.
(§5) The tables hereinafter summarize the results of numerous experiments which were carried out as described in the “Detailed description” section above.
(§6) In tables 3 and 4, “pH2AX” corresponds to the mean number of nuclear foci obtained with the marker pH2AX, 24 hours after contacting the cell sample with the chemical agent at the concentration C (NpH2AX(24 h, C)), and where “Micronuclei” corresponds to the mean number of micronuclei observed per 100 cells 24 hours after contacting the cell sample with the chemical agent at the concentration C(NMN(24 h, C)). […]

Ha (astrocyte cells) [2] = test: Micronuclei per 100 cells 24 h after contacting, Ha astrocyte cells
Procedure: as §1, §3
(§7) Counterstaining with DAPI (a DNA marker known to those skilled in the art) makes it possible to locate the nucleus to situate the cytoplasmic or nuclear location to quantify the micronuclei, which are complementary cell markers to the data on the foci.
as §5
(§8) In tables 3 and 4, “pH2AX” corresponds to the mean number of nuclear foci obtained with the marker pH2AX, 24 hours after contacting the cell sample with the chemical agent at the concentration C (NpH2AX(24 h, C)), and where “Micronuclei” corresponds to the mean number of micronuclei observed per 100 cells 24 hours after contacting the cell sample with the chemical agent at the concentration C(NMN(24 h, C)).
(§9) Table 4 presents a detection of number of pH2AX foci and number of micronuclei 24 hours after contacting control nervous system cell lines Ha (astrocyte cells), Hah (hippocampus astrocyte cells) and Hasp (spinal cord astrocyte cells) with a metallic compound (AlCl3, Cu, CuCl2, CuSO4, Pb(NO3)2, CdCl2, Cd-acetate or Cd-acetate-citrate) according to the concentration of said metallic compound used.

[3] = system: Hah (hippocampus astrocyte cells); test: pH2AX foci 24 h after contacting, Hah hippocampus astrocyte cells
Procedure: as §1, §2, §3, §4, §5, §6

[4] = system: Hah (hippocampus astrocyte cells); test: Micronuclei per 100 cells 24 h after contacting, Hah
Procedure: as §1, §3, §7, §5, §8, §9

[5] = system: Hasp (spinal cord astrocyte cells); test: pH2AX foci 24 h after contacting, Hasp spinal cord astrocyte cells
Procedure: as §1, §2, §3, §4, §5, §6

[6] = system: Hasp (spinal cord astrocyte cells); test: Micronuclei per 100 cells 24 h after contacting, Hasp
Procedure: as §1, §3, §7, §5, §8, §9

HMEC cells [7] = test: pH2AX foci 24 h after contacting, Table 4 lower part (HMEC endothelial cells); conditions: for pH2AX: line cell blank (below Hasp), 24 hours after contacting
Procedure: as §1, §2, §3, §4, §5, §8

HMEC cells [8] = test: Micronuclei per 100 cells 24 h after contacting, Table 4 lower part (HMEC); conditions: line cell blank (below Hasp)
Procedure: as §1, §3, §7, §5, §8

1BR3 (control cells) = test: pH2AX foci immunofluorescence 24 h after contacting, 1BR3 control fibroblasts; conditions: 1BR3, 24 hours after contacting (Table 3)
Procedure: as §1, §2, §3, §4
Commercial 1BR3 and 149 BR control fibroblasts were amplified according to the recommendations of the supplier (SIGMA-ALDRICH) until the number of cells sought was obtained. After obtaining a sufficient number of cells (generally after one to 3 weeks), the first experiments were conducted using the process according to the invention. The cells were inoculated on glass coverslips in Petri dishes.
The acquisition of the results was carried out using these coverslips on an immunofluorescence microscope (Olympus model). The reading was performed directly by counting the foci obtained with the marker pH2AX on at least 50 cells in G0/G1 for each point or using dedicated image analysis software (imageJ). […]

1BR3 cells = test: Micronuclei per 100 cells 24 h after contacting, 1BR3
Procedure: as §1, §3, §7, §5, §8

[Cl][Al]([Cl])[Cl] [AlCl3]
pH2AX (Ha (astrocyte cells) [1]; 3 μM): 0.34 foci
pH2AX (Ha (astrocyte cells) [1]; 10 μM): 0.88 foci
pH2AX (Ha (astrocyte cells) [1]; 30 μM): 1.37 foci
pH2AX (Ha (astrocyte cells) [1]; 100 μM): 2.18 foci
pH2AX (Ha (astrocyte cells) [1]; 300 μM): 2.96 foci
pH2AX (Ha (astrocyte cells) [1]; 1000 μM): 6.04 foci
H2AX foci (Ha (astrocyte cells) [1]; astrocytes (HA cells) contaminated with 100 μM): 2 foci
Micronuclei (Ha (astrocyte cells) [2]; 3 μM): 10 per 100 cells
Micronuclei (Ha (astrocyte cells) [2]; 10 μM): 15 per 100 cells
Micronuclei (Ha (astrocyte cells) [2]; 30 μM): 16.7 per 100 cells
Micronuclei (Ha (astrocyte cells) [2]; 100 μM): 46.7 per 100 cells
Micronuclei (Ha (astrocyte cells) [2]; 300 μM): 56.7 per 100 cells
Micronuclei (Ha (astrocyte cells) [2]; 1000 μM): 70 per 100 cells
pH2AX ([3]; 3 μM): 0.07 foci
pH2AX ([3]; 10 μM): 0.68 foci
pH2AX ([3]; 30 μM): 0.83 foci
pH2AX ([3]; 100 μM): 1.22 foci
pH2AX ([3]; 300 μM): 1.77 foci
pH2AX ([3]; 1000 μM): 2.28 foci
Micronuclei ([4]; 3 μM): 2 per 100 cells
Micronuclei ([4]; 10 μM): 2 per 100 cells
Micronuclei ([4]; 30 μM): 4 per 100 cells
Micronuclei ([4]; 100 μM): 6 per 100 cells
Micronuclei ([4]; 300 μM): 20 per 100 cells
Micronuclei ([4]; 1000 μM): 30 per 100 cells
pH2AX ([5]; 3 μM): 0.84 foci
pH2AX ([5]; 10 μM): 0.46 foci
pH2AX ([5]; 30 μM): 0.74 foci
pH2AX ([5]; 100 μM): 2.15 foci
pH2AX ([5]; 300 μM): 1.7 foci
pH2AX ([5]; 1000 μM): 1.62 foci
Micronuclei ([6]; 3 μM): 2 per 100 cells
Micronuclei ([6]; 10 μM): 4 per 100 cells
Micronuclei ([6]; 30 μM): 4 per 100 cells
Micronuclei ([6]; 100 μM): 7.3 per 100 cells
Micronuclei ([6]; 300 μM): 8.7 per 100 cells
Micronuclei ([6]; 1000 μM): 13 per 100 cells
H2AX foci (HMEC cells [7]; endothelial cells (HMEC cells), 100 μM): 3.7 foci
pH2AX (HMEC cells [7]; 3 μM): 3.2 foci
pH2AX (HMEC cells [7]; 10 μM): 3.2 foci
pH2AX (HMEC cells [7]; 30 μM): 5.7 foci
pH2AX (HMEC cells [7]; 100 μM): 3.7 foci
pH2AX (HMEC cells [7]; 300 μM): 4.5 foci
pH2AX (HMEC cells [7]; 1000 μM): 9.9 foci
Micronuclei (HMEC cells [8]; 3 μM): 1.75 per 100 cells
Micronuclei (HMEC cells [8]; 10 μM): 3.75 per 100 cells
Micronuclei (HMEC cells [8]; 30 μM): 5 per 100 cells
Micronuclei (HMEC cells [8]; 100 μM): 4.33 per 100 cells
Micronuclei (HMEC cells [8]; 300 μM): 7.33 per 100 cells
Micronuclei (HMEC cells [8]; 1000 μM): 11.5 per 100 cells

CCNc1nc(Cl)nc(NC(C)C)n1 [Atrazine]
pH2AX (1BR3 (control cells); 0.01 μM): 1 foci
pH2AX (1BR3 (control cells); 0.1 μM): 1.3 foci
pH2AX (1BR3 (control cells); 0.3 μM): 1.8 foci
pH2AX (1BR3 (control cells); 10 μM): 3.1 foci
pH2AX (1BR3 (control cells); 30 μM): 3.5 foci
Micronuclei (1BR3 cells; 0.01 μM): 5 per 100 cells
Micronuclei (1BR3 cells; 0.1 μM): 6 per 100 cells
Micronuclei (1BR3 cells; 1 μM): 13.5 per 100 cells
Micronuclei (1BR3 cells; 10 μM): 15 per 100 cells
Micronuclei (1BR3 cells; 20 μM): 40 per 100 cells

CC(=O)[O-].CC(=O)[O-].[Cd+2] [Cd-acetate]
pH2AX (HMEC cells [7]; 10 μM): 5 foci
pH2AX (HMEC cells [7]; 30 μM): 5.5 foci
pH2AX (HMEC cells [7]; 100 μM): 7 foci
Micronuclei (HMEC cells [8]; 10 μM): 5 per 100 cells
Micronuclei (HMEC cells [8]; 30 μM): 10 per 100 cells
Micronuclei (HMEC cells [8]; 100 μM): 10 per 100 cells

[Cl][Cu][Cl] [CuCl2]
pH2AX (HMEC cells [7]; 3 μM): 1.6 foci
pH2AX (HMEC cells [7]; 10 μM): 1.9 foci
pH2AX (HMEC cells [7]; 30 μM): 1.6 foci
pH2AX (HMEC cells [7]; 100 μM): 1.5 foci
pH2AX (HMEC cells [7]; 300 μM): 5.3 foci
pH2AX (HMEC cells [7]; 1000 μM): 21.4 foci
Micronuclei (HMEC cells [8]; 3 μM): 4 per 100 cells
Micronuclei (HMEC cells [8]; 10 μM): 6.7 per 100 cells
Micronuclei (HMEC cells [8]; 30 μM): 5.3 per 100 cells
Micronuclei (HMEC cells [8]; 100 μM): 6.7 per 100 cells
Micronuclei (HMEC cells [8]; 300 μM): 7.3 per 100 cells
Micronuclei (HMEC cells [8]; 1000 μM): 4 per 100 cells
